# According to US12336989B2, “Transmucosal methods for treating psychiatric and neurological conditions” (INTRA-CELLULAR THERAPIES, INC., priority 2017, dated 2025):
# What was measured:
# [1] = Example 2: pharmacokinetics of oral dosing in dogs; assay type: in vivo, beagle dogs; conditions: sublingual and subcutaneous dosing at 1.0 mg/kg vs oral 15 mg/kg
# Experimental: For control, the dogs are administered empty capsules. For the Compound of Formula I, the dogs are administered normal-release oral capsules. Blood samples are obtained at 0.25 hours, 0.5 hours, 1 hour, 4 hours, 8 hour and 24 hours. […] Cmax, Tmax and area-under-the-curve (AUC, 0-24 hours) are calculated using Phoenix WinNonlin software.
# [2] = biological target: H1 histaminergic receptors (Homo sapiens, UniProt P35367); conditions: cited from earlier work
# 5-HT2C receptors = biological target: T1, 5-HT2C receptors (Homo sapiens, UniProt P28335); conditions: cited from earlier work
# T1 sequence (P28335 33-458): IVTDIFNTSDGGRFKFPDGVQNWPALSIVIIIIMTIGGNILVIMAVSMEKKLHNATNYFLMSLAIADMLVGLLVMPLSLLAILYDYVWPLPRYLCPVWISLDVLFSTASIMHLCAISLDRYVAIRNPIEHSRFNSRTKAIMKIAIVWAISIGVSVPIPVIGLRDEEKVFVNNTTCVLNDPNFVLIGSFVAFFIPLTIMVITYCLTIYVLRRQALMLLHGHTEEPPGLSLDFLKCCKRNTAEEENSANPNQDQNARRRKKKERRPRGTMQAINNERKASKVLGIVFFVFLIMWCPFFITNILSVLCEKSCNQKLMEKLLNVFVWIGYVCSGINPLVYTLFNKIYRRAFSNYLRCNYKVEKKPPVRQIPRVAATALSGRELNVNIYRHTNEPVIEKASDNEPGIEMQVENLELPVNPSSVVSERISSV
# muscarinic receptors = conditions: cited from earlier work
# H1 histaminergic receptors, sequence (P35367 whole entry): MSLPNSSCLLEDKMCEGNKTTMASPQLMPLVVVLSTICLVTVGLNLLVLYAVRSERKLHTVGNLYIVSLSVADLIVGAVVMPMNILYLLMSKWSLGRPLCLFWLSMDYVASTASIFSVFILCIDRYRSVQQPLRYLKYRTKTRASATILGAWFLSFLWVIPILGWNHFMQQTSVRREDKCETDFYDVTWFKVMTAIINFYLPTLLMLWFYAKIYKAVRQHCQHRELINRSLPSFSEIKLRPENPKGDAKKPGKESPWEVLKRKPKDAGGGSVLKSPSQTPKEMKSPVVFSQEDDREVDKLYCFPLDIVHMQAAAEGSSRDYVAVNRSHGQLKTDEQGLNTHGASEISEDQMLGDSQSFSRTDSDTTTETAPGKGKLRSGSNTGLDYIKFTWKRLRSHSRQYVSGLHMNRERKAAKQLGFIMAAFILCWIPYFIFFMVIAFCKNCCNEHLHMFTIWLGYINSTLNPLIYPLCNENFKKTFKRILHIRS
smiles,measurement,setting,value
"CN1CCN2c3c(cccc31)[C@@H]1CN(CCCC(=O)c3ccc(F)cc3)CC[C@@H]12 [Compound of Formula I, 1-(4-fluoro-phenyl)-4-((6bR,10aS)-3-methyl-2,3,6b,9,10,10a-hexahydro-1H,7H-pyrido[3′,4′:4,5]pyrrolo[1,2,3-de]quinoxalin-8-yl)-butan-1-one]","24-hour AUC, times higher than oral dosing at 15 mg/kg",[1],about three
same,binding to H1 histaminergic receptors,[2],negligible binding
same,binding to 5-HT2C receptors,5-HT2C receptors,negligible binding
same,binding to muscarinic receptors,muscarinic receptors,negligible binding
